pIC50: −log10 of the molar value. Converted amounts (≈) assume the structure as drawn.
Legend:
[1] = system: rabbit reticulocyte ribosomes; assay: in-vitro translation assay, rabbit reticulocyte ribosomes; type: biochemical; conditions: mammalian cytosolic ribosomes (rabbit)
P aeruginosa = assay: MIC by broth microdilution, P aeruginosa isolates; type: cell-based, Pseudomonas aeruginosa; conditions: for MIC AG031 P. aer. APH(3′)-II: clinical isolate AG031, APH(3′)-II; for MIC AG032 P. aer. APH(3′)-II: clinical isolate AG032, APH(3′)-II
[2] = system: A1555G mutant mitochondrial ribosome (human chimeric); assay: in-vitro translation assay, human chimeric ribosomes, A1555G mutant mitochondrial decoding site; type: biochemical; conditions: human mitochondrial decoding site with A1555G point mutation; read-out: IC50 Mitoch. A1555G
Description: (§1) The antiribosomal activity of these compounds was investigated with cell-free translation assays using both wild type bacterial ribosomes and hybrid ribosomes carrying eukaryotic decoding A sites enabling the prediction of selectivity.

[3] = system: cytosolic ribosome (human chimeric); type: biochemical; conditions: for pIC50: ribosomes with a human cytosolic decoding site, read-out: IC50 Cytosolic; for Target specificity bacterial vs. Cytosolic: relative target specificity, bacterial vs. human cytosolic
Description: as §1

[4] = system: mitochondrial ribosome (human chimeric); type: biochemical; conditions: for pIC50: ribosomes with a human mitochondrial decoding site, read-out: IC50 Mitoch.
Description: as §1

MRSA = assay: MIC by broth microdilution, MRSA isolates; type: cell-based; conditions: for MIC AG038 MRSA: clinical isolate AG038; for MIC AG039 MRSA AAC(6′)-I ANT(4′)-I: clinical isolate AG039, AAC(6′)-I ANT(4′)-I; for MIC AG042 MRSA AAC(6′)-I ANT(4′)-I APH(2′): clinical isolate AG042, AAC(6′)-I ANT(4′)-I APH(2′); for MIC AG044 MRSA: clinical isolate AG044
E coli wild type = assay: MIC by broth microdilution, wild type E coli; type: cell-based; conditions: for MIC AG001 E. coli WT: clinical isolate AG001, WT; for MIC AG055 E. coli WT: clinical isolate AG055, WT; for MIC pH430 WT: E. coli strain pH430, WT
[5] = system: E coli carrying specific resistance determinants; assay: MIC by broth microdilution, E coli carrying specific resistance determinants; type: cell-based; conditions: for MIC AG003 E. coli AAC(3)-II: clinical isolate AG003, AAC(3)-II; for MIC AG036 ANT(4′,4′′): E. coli strain AG036, ANT(4′,4′′); for MIC AG037 APH(3′)-III: E. coli strain AG037, APH(3′)-III; for MIC AG103 armA: E. coli strain AG103, armA; for MIC pH414 AAC(6′)-I: E. coli strain pH414, AAC(6′)-I; for MIC pH415 AAC(6′)-II: E. coli strain pH415, AAC(6′)-II; for MIC pH421 APH(3)-I: E. coli strain pH421, APH(3)-I; for MIC pH422 APH(3′)-II: E. coli strain pH422, APH(3′)-II; for MIC pH423 APH(3′)-VI: E. coli strain pH423, APH(3′)-VI; for MIC pH432 ANT(4′): E. coli strain pH432, ANT(4′)
[6] = system: wild type bacterial ribosomes; assay: in-vitro translation assay, bacterial ribosomes; type: biochemical; conditions: Mycobacterium smegmatis ribosomes; read-out: IC50 Bacterial
Description: as §1

Structure (SMILES) | pIC50 [1] | MIC AG031 P. aer. APH(3′)-II (P aeruginosa) [µg/mL] | MIC AG032 P. aer. APH(3′)-II (P aeruginosa) [µg/mL] | pIC50 [2] | pIC50 [3] | pIC50 [4] | MIC AG038 MRSA (MRSA) [µg/mL] | MIC AG039 MRSA AAC(6′)-I ANT(4′)-I (MRSA) [µg/mL] | MIC AG042 MRSA AAC(6′)-I ANT(4′)-I APH(2′) (MRSA) [µg/mL] | MIC AG044 MRSA (MRSA) [µg/mL] | MIC AG001 E. coli WT (E coli wild type) [µg/mL] | MIC AG055 E. coli WT (E coli wild type) [µg/mL] | MIC AG003 E. coli AAC(3)-II [5] [µg/mL] | pIC50 [6] | MIC pH430 WT (E coli wild type) | MIC AG036 ANT(4′,4′′) [5] [µg/mL] | MIC AG037 APH(3′)-III [5] [µg/mL] | MIC pH421 APH(3)-I [5] [μg/ml] | MIC pH422 APH(3′)-II [5] [μg/ml] | MIC pH423 APH(3′)-VI [5] [μg/ml] | also measured
NCC1OC(OC2C(CNC=O)OC(OC3C(O)C(N)CC(N)C3OC3OC(CO)C(O)C(O)C3N)C2O)C(N)C(O)C1O (stereo not drawn) [DC137] | 4.54 | ≥128 | 128 (≈ 199 µM) | 4.52 | 4.05 | 3.84 | 4 (≈ 6.22 µM) | >128 | >128 | 2 to 4 | 4 (≈ 6.22 µM) | 2 to 4 | 2 to 4 | 7.40 |  |  |  |  |  |  | 
CCNC1C(OC2C(N)CC(N)C(O)C2OC2OC(CO)C(OC3OC(CN)C(O)C(O)C3N)C2O)OC(CN)C(O)C1O (stereo not drawn) [DC-172] | 4.35 | >64 | >64 | 5.80 | 4.37 | 4.96 | 0.5 (≈ 0.778 µM) | >32 | >32 | 1 (≈ 1.56 µM) | 1 to 2 | 1 (≈ 1.56 µM) | 1 (≈ 1.56 µM) | 8.00 |  |  |  |  |  |  | 
NC[C@@H]1O[C@H](O[C@H]2[C@@H](O)[C@H](O[C@@H]3[C@@H](O)[C@H](N)C[C@H](N)[C@H]3O[C@H]3O[C@H](CN)[C@@H](O)[C@H](O)[C@H]3O)O[C@@H]2CO)[C@H](N)[C@@H](O)[C@@H]1O [DC-119] | 4.06 | 128 (≈ 208 µM) | 128 (≈ 208 µM) | 5.57 | 3.97 | 4.44 | 2 (≈ 3.25 µM) | >128 | >128 | 2 (≈ 3.25 µM) | 2 to 4 | 2 to 4 | 2 to 4 | 7.52 |  |  |  |  |  |  | 
CC1CC(N)C2OC(OC3C(N)CC(N)C(O)C3OC3OC(CO)C(OC4OC(CN)C(O)C(O)C4N)C3O)C(N)C(O)C2O1 (stereo not drawn) [DC150] | 4.89 | >128 | >128 | 5.64 | 4.92 | 5.39 | 128 (≈ 196 µM) | 128 (≈ 196 µM) | 128 (≈ 196 µM) | 128 (≈ 196 µM) | >128 | >128 | >128 | 6.32 | 64-128 μg/ml |  |  |  |  |  | Target specificity bacterial vs. Cytosolic [3]: low; Target specificity bacterial vs. Mitochondrial ([4]; relative target specificity, bacterial vs. human mitochondrial): low
CC(O)C1OC(OC2C(N)CC(N)C(O)C2OC2OC(CO)C(OC3OC(CN)C(O)C(O)C3N)C2O)C(N)C(O)C1O (stereo not drawn) [DC156] | 5.27 | >32 | >32 | 5.08 | 5.59 | 3.73 | 4 to 8 | >128 | >128 | 2 to 4 | 4 to 8 | 4 (≈ 6.35 µM) | 4 (≈ 6.35 µM) | 7.70 | 1 μg/ml | 32 to 64 | >32 | >32 | >32 | >32 | Target specificity bacterial vs. Cytosolic [3]: low; MIC AG103 armA [5]: 1 µg/mL (≈ 1.59 µM); MIC pH414 AAC(6′)-I [5]: 1 μg/ml; MIC pH415 AAC(6′)-II [5]: 1 μg/ml; MIC pH432 ANT(4′) [5]: 1 μg/ml
CC(N)C1OC(OC2C(N)CC(N)C(O)C2OC2OC(CO)C(OC3OC(CN)C(O)C(O)C3N)C2O)C(N)C(O)C1O (stereo not drawn) [DC166] | 4.32 | 128 to 256 | 128 (≈ 204 µM) | 6.00 | 4.59 | 5.05 | 2 (≈ 3.18 µM) | >128 | >128 | 1 (≈ 1.59 µM) | 2 (≈ 3.18 µM) | 2 (≈ 3.18 µM) | 2 (≈ 3.18 µM) | 8.00 | 0.5 μg/ml | 16 (≈ 25.5 µM) | >64 | >32 | >32 | >32 | MIC AG103 armA [5]: 1 µg/mL (≈ 1.59 µM); MIC pH414 AAC(6′)-I [5]: 0.5 μg/ml; MIC pH415 AAC(6′)-II [5]: 1-2 μg/ml; MIC pH432 ANT(4′) [5]: 0.5 μg/ml
NCC1OC(OC2C(CNC(N)=O)OC(OC3C(O)C(N)CC(N)C3OC3OC(CO)C(O)C(O)C3N)C2O)C(N)C(O)C1O (stereo not drawn) [DC141] | 4.54 | >128 | >128 | 4.55 | 4.05 | 4.15 | 4 to 8 | >128 | >128 | 4 (≈ 6.08 µM) | 8 (≈ 12.2 µM) | 4 (≈ 6.08 µM) | 4 (≈ 6.08 µM) | 7.52 |  |  |  |  |  |  | 
NC[C@H]1O[C@H](O[C@H]2[C@H](O[C@@H]3O[C@H](CO)[C@@H](O)[C@H]3O)[C@@H](O)[C@H](N)C[C@@H]2N)[C@H](N)C[C@@H]1O [DC047] | 3.80 | 4 (≈ 9.12 µM) | 4 (≈ 9.12 µM) | 3.92 | 3.53 | 3.49 | 8 (≈ 18.2 µM) | >128 | >128 | 8 to 16 | 8 to 16 | 8 to 16 | 8 (≈ 18.2 µM) | 7.00 |  |  |  |  |  |  | 
NCC1OC(OC2C(CO)OC(OC3C(O)C(N)CC(N)C3OC3OC4C(O)CCCOC4C(O)C3N)C2O)C(N)C(O)C1O (stereo not drawn) [DC196] | 4.37 | >32 |  | 4.02 | 4.06 | 3.70 | 2 (≈ 3.05 µM) |  |  |  | 4 (≈ 6.1 µM) |  |  | 6.85 | 4 μg/ml | 2 (≈ 3.05 µM) | >128 | >128 | 64 | 16 | 
